The source of these data is patent EP3349734B1, “USE OF SOLUBLE AND INSOLUBLE FRACTIONS OF A CYCLODEXTRIN POLYMER AND OF MIXTURES THEREOF AS AN EXCIPIENT IN A TABLET” (Université de Lille, priority 2015, dated 2017).

Common to all, as to assay type: physicochemical
Data set [1] is described as follows: Dissolution test of ibuprofène (Sotax USP 4, HCl pH = 1). The settings on record: in 45 minutes, 500 mL HCl pH = 1, 37°C, 50 mL/min. The text has this:
(§1) La dissolution de principes actifs à partir de comprimés selon l'invention, i.e. les comprimés formés à partir de fractions solubles de polymères de cyclodextrine, a été comparée à la dissolution de principes actifs à partir de comprimés formés à partir de cyclodextrines sous forme de monomères ainsi qu'à la dissolution du principe actif non compris dans une forme galénique.
(§2) La poudre contenant les cyclodextrines ou les fractions solubles de polymère de cyclodextrine et le principe actif a été obtenue par granulation humide comme détaillé dans l'exemple 4. Le ratio CD ou PolyCD / ibuprofène était de 90/10 et le ratio CD ou PolyCD / Piroxicam était de 60 / 40. Les essais de dissolution ont été réalisés dans un système Sotax® USP 4 (50 mL/min, 37°C) muni d'un détecteur UV. L'ibuprofène et le piroxicam ont été détectés à une longueur d'onde de 264 et 334 nm, respectivement.
(§3) Le milieu de dissolution est composé de 500 mL de HCl (pH = 1) dans le cas de l'ibuprofène, et de 500 mL de HCl (pH = 4) dans le cas du piroxicam. Des échantillons ont été prélevés toutes les 2 minutes pendant 1 h et analysés par un spectromètre UV-VIS (Perkin Elmer Lambda 25). Les courbes sont obtenues en pourcentage en divisant la quantité de principe actif libérée au cours du temps par la quantité de principe actif initiale.

Data set [2] can be described thus: Glass transition by DSC (Gordon-Taylor extrapolation of mannitol mixtures; quenched melt). The settings on record: after melt-quench at 210°C, heating 5°C/min. The procedure:
Les expériences de calorimétrie ont été réalisées avec la DSC Q200 de chez TA Instruments. Les échantillons ont été placés dans des creusets en aluminium ouverts et balayés avec de l'azote gazeux pur. L'instrument a été étalonné en température et en enthalpie en utilisant l'indium comme standard. […]
La figure 12 montre les thermogrammes des mélanges poly-βCD / mannitol enregistrés au chauffage (5°C/min). Ils présentent tous un saut de chaleur spécifique (Cp) caractéristique d'une transition vitreuse. Ce saut est unique, ce qui indique que les mélanges sont dans un état physique amorphe homogène. La température de transition vitreuse Tg (prise au point d'inflexion du saut) diminue lorsque la concentration en mannitol augmente ce qui montre l'effet plastifiant du mannitol sur la poly-βCD. L'évolution du Tg du mélange ave la concentration en mannitol (X) suit une loi de Gordon Taylor dont l'extrapolation à X = 0 permet d'estimer le Tg de la poly-βCD pure. On trouve Tg # 400°C. La transition vitreuse de la poly-βCD se situe donc à très haute température et bien au-dessus de sa température de dégradation thermique. Elle ne peut donc pas être observée directement en DSC. Une étude analogue menée avec la poly-MebCD révèle un comportement identique et une transition vitreuse proche de Tg = 317°C. […]

Data set [3] in a line: Dissolution test of piroxicam (Sotax USP 4, HCl pH = 4). The note with it: in 45 minutes; 500 mL HCl pH = 4, 37°C, 50 mL/min.
Text: as §1, §2, §3

Data set [4] can be described thus: Phase-solubility diagram of ibuprofène with cyclodextrins or soluble polymer fractions. The settings on record: calculated from slope and So of the solubility diagram. The method, then: (§4) Les diagrammes de solubilité de plusieurs principes actifs ont été effectués en présence de cyclodextrines et de fractions solubles de polymères de cyclodextrine mentionnés à l'exemple 1.
(§5) Des solutions de concentration croissante de cyclodextrines et fractions solubles de polymères de cyclodextrine ont été préparées dans de l'eau ultrapure [0-70 g/L]. 10 mL de chacune des solutions ont été mis en présence d'un excès du principe actif (20 mg) sous agitation pendant 24 heures à température ambiante. Les solutions ont ensuite été filtrées avec une membrane en cellulose et en Nylon (0,45 µm; VWR International, USA) respectivement pour l'Ibuprofène et le Piroxicam. L'ibuprofène a été dosé par HPLC (Shimadzu LC-2010 HT Liquid Chromatography), la phase mobile de l'ibuprofène est un mélange acétonitrile/eau (60:40) avec un pH de 2,25, une colonne C18 a été utilisée. Le piroxicam a été dosé par spectrophotométrie UV-Vis à 356 nm (UV 1800 Shimadzu).
(§6) La constante de stabilité (K1:1) est utilisée pour comparer l'affinité de principes actifs pour différentes cyclodextrines ou dérivés. La solubilité totale de médicament (St) en solution aqueuse de cyclodextrine sera : [formula]
(§7) So = solubilité intrinsèque du médicament; [CD]1 = concentration totale en cyclodextrine dans le milieu aqueux
(§8) Une parcelle de St rapport [CD] t, selon l'équation (1), donnera une ligne droite avec une pente (K 1:1 So / (1 + K 1:1 So)) et une interception (Sint) égale à So. K 1:1 est calculée à partir de la pente et So : [formula]
Afin de pouvoir faire une comparaison directe entre cyclodextrine monomère et cyclodextrine polymérisée, les diagrammes de solubilité sont présentés en fonction de la concentration rapportée en gramme de monomère de cyclodextrine par litre. Tableau 3 : Solubilité de l'ibuprofène et constantes de complexation en présence des cyclodextrines ou de fractions solubles de polymères de cyclodextrine à 10 et 50 g/L en cyclodextrine. L'utilisation de cyclodextrines sous forme de monomères ne tombe pas sous l'étendue de la protection revendiquée.

Data set [5] is described as follows: Phase-solubility diagram of piroxicam with cyclodextrins or soluble polymer fractions. The settings on record: calculated from slope and So of the solubility diagram. The procedure:
as §4, §5, §6, §7, §8

Regarding `CC(C)Cc1ccc(C(C)C(=O)O)cc1` (stereo not shown) [ibuprofène, acide 2-[4-isobutylphényl]propanoique], the “dissolution du principe actif” value in data set [1] is listed as 15%.

For the compound `CN1C(C(=O)Nc2ccccn2)=C(O)c2ccccc2S1(=O)=O` [piroxicam, 1,1-dioxydede 4-hydroxy-2-méthyl-N-(2-pyridinyl)-2H-1,2-benzothiazine-3-carboxamide], in data set [2], the “Tg (saut de chaleur spécifique)” value was 65 °C. The same compound yielded a libération du piroxicam in data set [3] of 10%.

In the case of `OC[C@H]1O[C@@H]2O[C@H]3[C@H](O)[C@@H](O)[C@@H](O[C@H]4[C@H](O)[C@@H](O)[C@@H](O[C@H]5[C@H](O)[C@@H](O)[C@@H](O[C@H]6[C@H](O)[C@@H](O)[C@@H](O[C@H]7[C@H](O)[C@@H](O)[C@@H](O[C@H]8[C@H](O)[C@@H](O)[C@@H](O[C@H]9[C@H](O)[C@@H](O)[C@@H](O[C@H]1[C@H](O)[C@H]2O)O[C@@H]9CO)O[C@@H]8CO)O[C@@H]7CO)O[C@@H]6CO)O[C@@H]5CO)O[C@@H]4CO)O[C@@H]3CO` [γCD, γ-cyclodextrine], the figures for the “Constante de complexation K1:1” value in data set [4] and in data set [5] were 1 M⁻¹ and 890 M⁻¹, respectively.

In the case of hydroxypropyl-β-cyclodextrine [HPβCD1], the “Constante de complexation K1:1” value in data set [4] was 17 M⁻¹.

Take hydroxypropyl-β-cyclodextrine [HPβCD2]: the figures for the “Constante de complexation K1:1” value in data set [4] and in data set [5] were 45 M⁻¹ and 185 M⁻¹, respectively.

For the compound hydroxypropyl-γ-cyclodextrine [HPγCD], in data set [4], the “Constante de complexation K1:1” value was 11 M⁻¹.

méthyl-β-cyclodextrine [MeβCD]: in data set [4], the “Constante de complexation K1:1” value was 33 M⁻¹.
